Test: Copper corrosion rate by linear polarization resistance
Conditions: for No FRC Corrosion Rate (mpy) / 1 ppm FRC Corrosion Rate (mpy): copper coupons, 5 ppm inhibitor, pH 7.0, 45° C.; for No FRC Corrosion Rate (mpy): absence of bleach, average over 20 to 24 hour period; for 1 ppm FRC Corrosion Rate (mpy): bleach maintained at 1 ppm FRC
Description: In addition, the corrosion rate of copper in the presence of benzimidazole, tolyltriazole, imidazole, pyrimidine, 6,6-dimethyladenine, and 6-methylpurine was determined using linear polarization resistance measurements. […] For each experiment, cylindrical copper coupons pre-polished using SIC 600 paper and fitted on a Pine rotator were immersed in a solution of corrosion inhibitor. […] The pH of the test water was maintained at 7.0 using carbon dioxide, and the water temperature was maintained at 45° C. throughout the experiment. […] Density: 8.92 g/cm^3; Copper Eq. Weight: 63.54 g; and Initial delay: 30 seconds. Next, the copper samples were exposed to a 25% bleach solution. […] The Rp in the absence and presence of bleach was collected and analyzed, and the average corrosion rate was calculated and recorded in Table 1. Corrosion rates were calculated in mils per year (mpy).

Row | Compound | No FRC Corrosion Rate (mpy) | 1 ppm FRC Corrosion Rate (mpy) | change of copper corrosion rate upon the addition of bleach (1 ppm FRC) | No FRC Corrosion Rate (mpy) (listed as adenine) | 1 ppm FRC Corrosion Rate (mpy) (listed as adenine)
1 | Clc1ncnc2nc[nH]c12 [Compound 3, 6-Chloropurine] | 0.04 | 0.16 | – | – | –
2 | Oc1ncnc2nc[nH]c12 [Compound 4, Hypoxanthine] | 0.1036 | 0.1684 | – | – | –
3 | Nc1ncnc2nc[nH]c12 [Compound 5, Adenine] | 0.1665 | 0.3571 | observed increase | 0.16 | 0.35
4 | c1ccc2[nH]cnc2c1 [Compound 6, Benzimidazole] | 0.0890 | 0.9594 | – | – | –
5 | c1c[nH]cn1 [Compound 8, Imidazole] | 0.69 | 1.1 | – | – | –
6 | c1cncnc1 [Compound 9, Pyrimidine] | 1.2 | 0.79 | – | – | –
7 | CN(C)c1ncnc2nc[nH]c12 [Compound 10, 6,6-Dimethyladenine] | 0.68 | 0.66 | – | – | –
8 | Cc1ncnc2nc[nH]c12 [Compound 11, 6-Methylpurine] | 0.74 | 0.44 | – | – | –
9 | Tolyltriazole [Compound 7] | 0.0214 | 0.0995 | – | – | –
